pEC50: −log10 of the molar value. Structures can show the parent of a compound that is named as a salt.
Legend:
[1] = target: T1, S1P1 (Homo sapiens, UniProt P21453); assay: GTPγS binding assay using S1P receptor/CHO membranes preparation; type: biochemical; parameters: expressed in transfected cells; membrane preparation; conditions: [35S]GTPγS, CHO membranes, SPA
Experimental: (§1) GTPγS Binding Assay Using S1P Receptor/CHO Membranes Preparation
(§2) The assay is based on the SPA technology (Amersham) and run in a 96 well format. Membranes are prepared from CHO cells stably expressing the S1P receptor of interest. Aliquots are stored at −80° C. Membranes (5-10 μg/well) resuspended in assay buffer (20 mM HEPES, pH7.4, 100 mM NaCl, 10 mM MgCl2 and 0.1% fat free BSA) containing 25 μg/mL Saponin and 10 μM GDP are mixed WGA-coated SPA beads (final conc. 1 mg/well). Ligand and [^35S]GTPγS (1250 Ci/mmol, final concentration 0.2 nM) are added and the plate sealed. After incubation at room temperature for 120 minutes under constant shaking the plates are centrifuged for 10 minutes at 1000×g to pellet the SPA beads. Then the plates are measured in a TopCount NXT instrument (Packard) and the data analyzed using GraphPad PRISM software.
Target sequence in this assay (P21453 whole entry): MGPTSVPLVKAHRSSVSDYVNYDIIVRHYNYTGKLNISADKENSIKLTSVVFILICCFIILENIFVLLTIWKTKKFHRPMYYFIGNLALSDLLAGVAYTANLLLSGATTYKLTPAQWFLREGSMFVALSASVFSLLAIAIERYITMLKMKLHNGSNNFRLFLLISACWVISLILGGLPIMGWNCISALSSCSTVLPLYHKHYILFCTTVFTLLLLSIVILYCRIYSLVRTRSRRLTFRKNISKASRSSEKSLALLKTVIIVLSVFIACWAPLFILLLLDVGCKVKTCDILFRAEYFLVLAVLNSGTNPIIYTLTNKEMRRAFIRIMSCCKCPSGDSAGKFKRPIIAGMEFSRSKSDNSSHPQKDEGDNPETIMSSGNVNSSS

[2] = target: T2, S1P3 (Homo sapiens, UniProt Q99500); assay: as above; type: biochemical; parameters: expressed in transfected cells; membrane preparation; conditions: [35S]GTPγS, CHO membranes, SPA
Experimental: as §1, §2
Target sequence in this assay (Q99500 whole entry): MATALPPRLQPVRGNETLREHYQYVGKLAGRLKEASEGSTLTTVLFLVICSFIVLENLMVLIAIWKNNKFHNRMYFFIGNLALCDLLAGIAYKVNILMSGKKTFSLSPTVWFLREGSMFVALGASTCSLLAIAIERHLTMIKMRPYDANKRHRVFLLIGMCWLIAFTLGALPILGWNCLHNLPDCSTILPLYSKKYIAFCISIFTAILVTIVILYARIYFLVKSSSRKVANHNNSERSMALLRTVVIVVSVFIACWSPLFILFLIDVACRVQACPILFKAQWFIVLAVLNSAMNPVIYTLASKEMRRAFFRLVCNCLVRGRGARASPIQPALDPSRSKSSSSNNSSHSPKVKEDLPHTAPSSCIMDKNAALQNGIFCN

[3] = target: T3, S1P4 (Homo sapiens, UniProt O95977); assay: as above; type: biochemical; parameters: expressed in transfected cells; membrane preparation; conditions: [35S]GTPγS, CHO membranes, SPA
T3 sequence (O95977 1-384): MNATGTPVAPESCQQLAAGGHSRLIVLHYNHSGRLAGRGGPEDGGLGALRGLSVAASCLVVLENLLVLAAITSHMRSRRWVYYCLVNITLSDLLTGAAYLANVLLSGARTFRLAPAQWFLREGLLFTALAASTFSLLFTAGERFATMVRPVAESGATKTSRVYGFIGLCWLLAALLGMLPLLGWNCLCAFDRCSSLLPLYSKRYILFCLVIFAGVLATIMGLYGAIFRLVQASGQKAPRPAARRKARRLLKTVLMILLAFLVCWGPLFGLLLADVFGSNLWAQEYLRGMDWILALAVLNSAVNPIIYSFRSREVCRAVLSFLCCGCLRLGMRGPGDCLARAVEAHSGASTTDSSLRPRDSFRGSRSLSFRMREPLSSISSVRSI
Experimental: as §1, §2

[4] = target: T4, S1P5 (Homo sapiens, UniProt Q9H228); assay: as above; type: biochemical; parameters: expressed in transfected cells; membrane preparation; conditions: [35S]GTPγS, CHO membranes, SPA
Experimental: as §1, §2
Target sequence in this assay (Q9H228 whole entry): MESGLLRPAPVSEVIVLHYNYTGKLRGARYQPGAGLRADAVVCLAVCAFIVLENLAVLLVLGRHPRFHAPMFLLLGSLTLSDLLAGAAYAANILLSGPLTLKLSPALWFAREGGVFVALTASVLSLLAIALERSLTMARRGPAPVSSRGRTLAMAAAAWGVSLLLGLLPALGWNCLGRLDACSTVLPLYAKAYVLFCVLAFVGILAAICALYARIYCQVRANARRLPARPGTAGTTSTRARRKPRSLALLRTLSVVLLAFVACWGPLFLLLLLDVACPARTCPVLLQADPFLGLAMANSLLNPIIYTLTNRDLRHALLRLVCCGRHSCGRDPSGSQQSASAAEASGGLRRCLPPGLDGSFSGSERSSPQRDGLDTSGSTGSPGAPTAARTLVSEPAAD

[5] = test system: peripheral blood lymphocytes; assay: Blood Lymphocyte Depletion assay in Lewis rats; type: in vivo; conditions: intravenous
Experimental: Percent of Lymphocyte Depletion in Lewis Rats
The lymphocyte homing property may be measured in following Blood Lymphocyte Depletion assay:
A S1P receptor agonist or the vehicle is administered intravenously to rats. […] In this assay, the S1P receptor agonist depletes peripheral blood lymphocytes, e.g. by 50%, when administered at a dose of e.g. <20 mg/kg. Preferred S1P receptor agonists are further compounds which in addition to their S1P binding properties internalize/desensitize S1P receptors, thereby antagonizing inflammatory processes driven by lysophospholipids, including i.e. sphingosine 1-phosphate (S1P), sphingophosphorylcholine (SPC), lysophosphatidic acid (LPA), and others, on vasculature cells, e.g. endothelial cells. The internalization/desensitization capacity of compounds will be determined using CHO cells transfected with a human myc-tagged S1P receptor.

[6] = target: T1, S1P1; conditions: background statement; cited from earlier work
Target sequence in this assay (P21453 whole entry, species assumed): as the sequence (P21453 whole entry) above

[7] = target: T3, S1P4; conditions: background statement; cited from earlier work
[8] = target: T4, S1P5; conditions: background statement; cited from earlier work
Target sequence in this assay (Q9H228 whole entry, species assumed): as the sequence (Q9H228 whole entry) above

[9] = target: T2, S1P3; conditions: background statement, about 10-fold lower affinity; cited from earlier work
Target sequence in this assay (Q99500 whole entry, species assumed): as the sequence (Q99500 whole entry) above

[10] = target: S1P2 (Homo sapiens, UniProt O95136); conditions: background statement; cited from earlier work
S1P2, sequence (O95136 whole entry, species assumed): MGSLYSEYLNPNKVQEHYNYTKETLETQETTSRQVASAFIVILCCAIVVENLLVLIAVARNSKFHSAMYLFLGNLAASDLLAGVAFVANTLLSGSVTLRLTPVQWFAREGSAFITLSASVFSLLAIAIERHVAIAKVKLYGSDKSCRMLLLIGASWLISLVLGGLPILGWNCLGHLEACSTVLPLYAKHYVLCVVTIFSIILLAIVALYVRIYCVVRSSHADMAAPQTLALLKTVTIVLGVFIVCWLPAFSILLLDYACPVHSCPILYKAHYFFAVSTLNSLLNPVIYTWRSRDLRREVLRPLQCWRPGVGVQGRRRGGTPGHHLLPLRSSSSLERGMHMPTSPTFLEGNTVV

pEC50 [1]	pEC50 [2]	pEC50 [3]	pEC50 [4]	Compound	Percent of Lymphocyte Depletion ([5]; 2 hours post treatment) [%]	Percent of Lymphocyte Depletion ([5]; 10 hours post treatment) [%]	Percent of Lymphocyte Depletion ([5]; 24 hours post treatment) [%]	also measured
9.77	7.08	8.31	8.70	CCCCCCCCc1ccc(CC[C@](N)(CO)COP(=O)(O)O)cc1I [Example J]	–	–	–	–
8.80	8.07	8.54	8.85	C=C(I)CCCCOc1ccc(CCC(N)(CO)COP(=O)(O)O)cc1 (racemic) [Example F, (R/S)-Phosphoric acid mono-{2-amino-2-hydroxymethyl-4-[4-(5-iodo-hex-5-enyloxy)-phenyl]-butyl}ester]	–	–	–	–
9.16	8.92	9.08	9.21	NC(CO)(CCc1ccc(OCCCC/C=C/I)cc1)COP(=O)(O)O (racemic) [Example B, (R/S)-phosphoric acid mono-{2-amino-2-hydroxymethyl-4-[4-((E)-6-iodo-hex-5-enyloxy)-phenyl]-butyl}ester]	–	–	–	–
–	–	–	–	C=C(I)CCCCOc1ccc(CCC(N)(CO)CO)cc1 [Example E, 2-Amino-2-{2-[4-(5-iodo-hex-5-enyloxy)-phenyl]-ethyl}-propane-1,3-diol HCl salt]	64	82	80	–
9.62	7.34	8.15	8.82	CCCCCCCCc1ccc(CC[C@](N)(CO)COP(=O)(O)O)c(I)c1 [Example K, Phosphoric acid mono-{(S)-2-amino-2-hydroxymethyl-4-[2-(2-iodo-4-octylphenyl)butyl]}ester]	–	–	–	–
–	–	–	–	CCCCCCCCc1ccc(CCC(N)(CO)CO)cc1I [Example G, 2-Amino-2-[2-(3-iodo-4-octylphenyl)ethyl]-1,3-propandiol]	51	88	87	–
8.89	8.52	8.72	8.96	NC(CO)(CCc1ccc(OCCCC/C=C\I)cc1)COP(=O)(O)O (racemic) [Example D, (R/S)-phosphoric acid mono-{2-amino-2-hydroxymethyl-4-[4-((z)-6-iodo-hex-5-enyloxy)-phenyl]-butyl}ester]	–	–	–	–
–	–	–	–	CCCCCCCCc1ccc(CCC(N)(CO)CO)c(I)c1 [Example H, 2-Amino-2-[2-(2-iodo-4-octylphenyl)ethyl]-1,3-propandiol]	67	89	89	–
9.52	–	–	9.15	CCCCCCCOc1ccc(CC[C@](N)(CO)COP(=O)(O)O)cc1I [Example L, Phosphoric acid mono-{(S)-2-amino-2-hydroxymethyl-4-[2-(3-iodo-4-(heptyloxy)phenyl)butyl]}ester]	–	–	–	–
–	–	–	–	CCCCCCCCc1ccc(CCC(N)(CO)CO)cc1 [FTY720, 2-amino-2-[2-(4-octylphenyl)ethyl]propane-1,3-diol]	71	86	86	affinity to S1P1 [6]: 0.3 nM; affinity to S1P4 [7]: 0.6 nM; affinity to S1P5 [8]: 0.3 nM; affinity to S1P3 [9]: 3.1 nM; binding to S1P2 [10]: not

— patent US20120244071A1, “FTY720 HALOGENATED DERIVATIVES” (Novartis AG, priority 2009, published 2012)
